Assay results reported in article PMC4965777, “Molecular characterization of Tps1 and Treh genes in Drosophila and their role in body water homeostasis” (Scientific Reports, 2016).

Experiments:
Format in all cases: biochemical
CG5171 = biological target: T1, CG5171 (Drosophila melanogaster, UniProt Q9VM19); assay: dephosphorylation; trehalose released determined with trehalase and glucose assay kit; conditions: 0.5 mM T6P; 5 mM MgCl2; PBS-type phosphate buffer pH 7.4; 30 °C; 0.02 nmol enzyme in 30 μl
T1 construct: gene Tpp; N-terminal His-tag (pET28a), E. coli BL21(DE3), Ni-NTA
T1 sequence (Q9VM19 1-273): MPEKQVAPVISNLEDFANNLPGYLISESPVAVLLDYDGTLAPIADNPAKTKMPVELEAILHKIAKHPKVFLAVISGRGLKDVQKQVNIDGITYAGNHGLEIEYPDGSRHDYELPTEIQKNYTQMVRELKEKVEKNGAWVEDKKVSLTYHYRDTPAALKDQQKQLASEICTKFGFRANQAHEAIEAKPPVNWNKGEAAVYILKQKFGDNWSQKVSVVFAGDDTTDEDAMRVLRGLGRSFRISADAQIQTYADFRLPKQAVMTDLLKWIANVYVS

Tps1-TPP = biological target: T2, Tps1-TPP (Drosophila melanogaster, UniProt Q9Y119); assay: as above; conditions: 0.5 mM T6P; 5 mM MgCl2; PBS-type phosphate buffer pH 7.4; 30 °C; 0.02 nmol enzyme in 30 μl
T2 construct: C-terminal TPP domain only (borders not in text), N-terminal His-tag (pET28a), E. coli BL21(DE3), Ni-NTA

OtsB = biological target: T3, OtsB (Escherichia coli, UniProt P31678); assay: as above; conditions: 0.5 mM T6P; 5 mM MgCl2; PBS-type phosphate buffer pH 7.4; 30 °C; 0.02 nmol enzyme in 30 μl
T3 construct: N-terminal His-tag (pET28a), E. coli BL21(DE3), Ni-NTA

cTreh = biological target: T4, cTreh (Drosophila melanogaster, UniProt A4UZR3); assay: trehalose hydrolysis; glucose released determined with glucose assay kit; conditions: 5 μg trehalose; 0.12 pmol His-cTreh in 15 μl PBS; 30 °C, 2 h
T4 construct: gene Treh; cytoplasmic isoform without signal peptide, N-terminal His-tag (pET28a), E. coli BL21(DE3), Ni-NTA
T4 sequence (A4UZR3 1-560): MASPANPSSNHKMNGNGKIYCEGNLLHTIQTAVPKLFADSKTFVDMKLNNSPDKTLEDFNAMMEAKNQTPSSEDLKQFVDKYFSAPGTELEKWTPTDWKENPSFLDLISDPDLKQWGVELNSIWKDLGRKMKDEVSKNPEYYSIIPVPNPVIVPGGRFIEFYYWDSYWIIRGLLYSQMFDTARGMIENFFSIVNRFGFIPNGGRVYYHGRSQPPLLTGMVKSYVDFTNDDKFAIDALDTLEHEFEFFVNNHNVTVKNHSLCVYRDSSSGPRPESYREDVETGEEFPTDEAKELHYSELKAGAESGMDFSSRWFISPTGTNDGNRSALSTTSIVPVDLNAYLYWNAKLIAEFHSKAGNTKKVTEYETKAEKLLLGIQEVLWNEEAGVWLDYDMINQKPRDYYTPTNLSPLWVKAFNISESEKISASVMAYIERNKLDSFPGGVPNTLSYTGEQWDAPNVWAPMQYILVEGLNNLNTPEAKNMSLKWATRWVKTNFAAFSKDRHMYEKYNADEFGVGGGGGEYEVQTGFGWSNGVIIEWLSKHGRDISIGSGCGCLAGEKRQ

T2 sequence (Q9Y119 entry or part of it): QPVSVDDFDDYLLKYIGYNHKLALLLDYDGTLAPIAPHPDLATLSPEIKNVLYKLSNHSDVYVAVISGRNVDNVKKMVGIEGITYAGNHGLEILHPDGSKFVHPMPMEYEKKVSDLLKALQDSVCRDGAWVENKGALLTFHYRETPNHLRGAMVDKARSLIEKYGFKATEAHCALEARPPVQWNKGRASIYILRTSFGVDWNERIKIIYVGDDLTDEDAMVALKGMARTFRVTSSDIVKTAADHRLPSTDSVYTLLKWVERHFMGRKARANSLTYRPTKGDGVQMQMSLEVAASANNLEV
T3 sequence (P31678 whole entry): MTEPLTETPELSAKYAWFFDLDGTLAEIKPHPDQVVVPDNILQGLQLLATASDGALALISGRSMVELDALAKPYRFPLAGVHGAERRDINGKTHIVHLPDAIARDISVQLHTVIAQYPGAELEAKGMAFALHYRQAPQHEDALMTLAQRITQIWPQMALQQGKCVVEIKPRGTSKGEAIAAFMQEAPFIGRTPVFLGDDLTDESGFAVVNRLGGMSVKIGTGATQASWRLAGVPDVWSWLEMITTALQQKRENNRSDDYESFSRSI

SMILES | dephosphorylation; trehalose released determined with trehalase and glucose assa (CG5171) | dephosphorylation; trehalose released determined with trehalase and glucose assa (Tps1-TPP) | dephosphorylation; trehalose released determined with trehalase and glucose assa (OtsB) | trehalose hydrolysis; glucose released determined with glucose assay kit (cTreh)
O=P(O)(O)OC[C@H]1O[C@H](O[C@H]2O[C@H](CO)[C@@H](O)[C@H](O)[C@H]2O)[C@H](O)[C@@H](O)[C@@H]1O [trehalose-6-phosphate] | recombinant Tps1-TPP and CG5171, but not CG5177, dephosphorylated T6P under our experimental conditions | recombinant Tps1-TPP and CG5171, but not CG5177, dephosphorylated T6P under our experimental conditions | Tps1-TPP showed a lower activity than CG5171 and OtsB in vitro | –
OC[C@H]1O[C@H](O[C@H]2O[C@H](CO)[C@@H](O)[C@H](O)[C@H]2O)[C@H](O)[C@@H](O)[C@@H]1O [trehalose] | – | – | – | The recombinant cTreh exhibited a specific breakdown of trehalose to produce glucose in vitro
